{"source": "patent US5427999A", "about": "“Amine adducts as corrosion inhibitors” (Exxon Chemical Patents Inc., priority 1991, dated 1995)", "key": {"Skeletonema costatum [1]": {"test_system": "Skeletonema costatum", "details": "normally a concentration of 1.3 mg/kg, 4320 min; cited from earlier work"}, "Skeletonema costatum [2]": {"test_system": "Skeletonema costatum", "experiment": "Marine phytoplankton inhibition of growth rate", "type": "cell-based, Skeletonema costatum (Greville) Cleve, Clone Skel-5", "details": "72 h, control compound, measured in this test, read-out: normal growth rate, measured in this test", "protocol": "Growth inhibition tests have also been carried out to assess the impact of the compounds on the, marine algae Skeletonema Costatum. This is a test which is becoming required by some offshore authorities, and is therefore of particular interest when considering the practical applications of the compounds.\nTest organisms: Skeletonema costatum (Greville) Cleve, Clone Skel-5.\nIncubation: 3 days at 14° C., in light/darkness cycles of 14 hrs/10 hrs.\nTest samples: Aliquots of each sample are weighed into phytoplankton medium and extracted; moderate shaking for 20 hrs at 14° C.\nControl compound: Na-dodecyl-sulphate. Normally a concentration of 1.3 mg/kg gives 30 to 70% of normal growth rate. Measured in this test: 30% to 55%.\nResults were calculated as the concentration of compound required to inhibit 50% growth of algae during three days of exposure, termed EC50, given in mg/kg (ppm). The interval EC20 to EC80 is also given."}}}
{"smiles": "CCCCCCCCCCCCOS(=O)(=O)O", "note": "[Na-dodecyl-sulphate]", "values": [{"measurement": "normal growth rate, normally given by control compound", "setting": "Skeletonema costatum [1]", "value": "30 to 70", "unit": "%"}, {"measurement": "activity at 1.3 mg/kg", "setting": "Skeletonema costatum [2]", "value": "30 to 55", "unit": "%"}]}
